# Measurements published in PubChem BioAssay (NCI).
# Several values for one entry are separate records, joined by “and”; a condition that tells them apart may be missing. Identical values can stand only once.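 Exposure lasted 48 hours, with cells grown in 96-well plates and compounds tested at five concentrations. GI50: concentration for 50% inhibition of growth. TGI: concentration producing complete growth inhibition.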
# Assays:
# Test in all cases: inhibition of tumour cell growth, NCI panel, 48 h
# [1] = system: SF-539 CNS
# [2] = system: MDA-MB-435
# [3] = system: BT-549 breast
# [4] = system: HT29 colon
# [5] = system: COLO 205 colon
# [6] = system: SN12C renal
# [7] = system: SNB-19 CNS
# [8] = system: OVCAR-8 ovarian
# [9] = system: HL-60(TB) leukemia
# [10] = system: CAKI-1 renal
Structure (SMILES),TGI [1],TGI [2],TGI [3],TGI [4],TGI [5],TGI [6],TGI [7],TGI [8],TGI [9],TGI [10],GI50 [1],GI50 [2],GI50 [3],GI50 [4],GI50 [5],GI50 [6],GI50 [7],GI50 [8],GI50 [9],GI50 [10]
Nc1ccc(COC(O)CN2CCCCC2)cc1[N+](=O)[O-] (stereo not given),> 100 µM,> 100 µM,> 100 µM,> 100 µM,> 100 µM,> 100 µM,> 100 µM,> 100 µM,> 100 µM,> 100 µM,–,–,–,–,–,–,–,–,–,–
COc1ccc(/C=C2\SC(=Nc3ccccc3)NC2=O)cc1,15.1 µM,5.34 µM,> 100 µM,19.5 µM,27.9 µM,> 100 µM,83.7 µM,31.7 µM,> 100 µM,> 100 µM,3.6 µM,2.14 µM,45.7 µM,4.38 µM,4.68 µM,9.1 µM,6.34 µM,6.62 µM,3.53 µM,3.98 µM
CC(=O)O[C@H]1C(=O)[C@@]2(C)[C@H]([C@H](OC(=O)c3ccccc3)[C@]3(O)C[C@H](OC(=O)[C@H](OC(=O)OC[C@H]4COC(C)(C)O4)[C@@H](NC(=O)c4ccccc4)c4ccccc4)C(C)=C1C3(C)C)[C@]1(OC(C)=O)CO[C@@H]1C[C@@H]2O,16.7 µM,0.00852 µM,> 33.3 µM,> 33.3 µM,> 33.3 µM,> 33.3 µM,> 33.3 µM,> 33.3 µM,> 33.3 µM,> 33.3 µM,0.0579 µM,0.00333 µM,0.0576 µM,0.0059 µM,0.0216 µM,0.0483 µM,0.0615 µM,0.0598 µM,0.0168 µM,0.0885 µM
CCCCCCCC/C=C1\CCC(CN2CCOCC2)C1=O (stereo not given),14.7 µM,15.3 µM,22.7 µM,20.5 µM,17.3 µM,12.5 µM,24.6 µM,13.8 µM,14.8 µM,23.8 µM,–,–,–,–,–,–,–,–,–,–
COc1ccc(NC(=O)c2sc3nc(C)c(C(=O)/C=C/c4cccc(OC)c4)cc3c2N)cc1,3.49 µM,6.78 µM,2.67 µM,2.35 µM,10.9 µM,4.47 µM,6.73 µM,> 50 µM,4.24 µM,6.99 µM,1.31 µM,1.35 µM,1.02 µM,1.02 µM,2 µM,1.43 µM,1.72 µM,1.59 µM,1.34 µM,1.96 µM
COc1ccc(/C(C#N)=C/c2cc(OC)c(OC)c(OC)c2)cc1,58 µM,12.5 µM,70 µM,85.8 µM,64.8 µM,> 100 µM,> 100 µM,> 100 µM,56.5 µM,> 100 µM,16.1 µM,2.19 µM,21.1 µM,11.8 µM,20.1 µM,27.2 µM,28 µM,30.7 µM,13.2 µM,20.1 µM
CCCCCCCCCCCCCCCCOP(=O)([O-])OCC[N+](C)(C)C,5.86 µM and 52.9 µM,5.23 µM and 39.3 µM,5.87 µM and 17.8 µM,–,–,10.7 µM and 56.6 µM,–,11.8 µM and 48.3 µM,3.84 µM and 16.3 µM,2.99 µM and 27.7 µM,2.34 µM,2 µM,1.63 µM,0.39 µM,0.424 µM,2.74 µM,1.21 µM,3.31 µM,0.897 µM,0.931 µM
O=C(CI)Nc1ccc(O)c2ccccc12,4.47 µM,4.34 µM,6.25 µM,2.8 µM,0.956 µM,3.3 µM,11.7 µM,7.15 µM,4.79 µM,1.84 µM,1.8 µM,1.9 µM,2.28 µM,0.504 µM,0.379 µM,1.61 µM,3.39 µM,1.93 µM,1.61 µM,0.69 µM
O=CN1N=C(c2cccc(Nc3ccnc4cc(Cl)ccc34)c2)CC1c1ccccc1 (stereo not given),2.49 µM,0.432 µM,1.51 µM,1.15 µM,2.76 µM,> 54.3 µM,> 100 µM,7.5 µM,0.487 µM,7.54 µM,0.37 µM,0.0889 µM,0.207 µM,0.327 µM,0.35 µM,0.617 µM,0.585 µM,0.553 µM,0.213 µM,0.348 µM
Cn1nc(C(F)(F)F)c(-c2cc(C(F)(F)F)cc(C(F)(F)F)c2)c1-c1ccc(OCc2ccc(Cl)cc2)cc1O,5.94 µM,8.03 µM,3.33 µM,10.6 µM,3.36 µM,10.3 µM,14.8 µM,12.1 µM,5.57 µM,5.9 µM,2.1 µM,2.54 µM,1.67 µM,2.9 µM,1.7 µM,1.96 µM,2.78 µM,2.92 µM,2.08 µM,2.11 µM
COc1cc(OC)c(OC)cc1/C=C/c1cnnc2ccccc12,> 10 µM,6.52 µM,> 10 µM,> 10 µM,> 10 µM,> 10 µM,> 10 µM,> 10 µM,> 10 µM,> 10 µM,–,–,–,–,–,–,–,–,–,–
O=C(c1ccccc1)c1c(C(F)(F)F)n([O-])c2cc(C(F)(F)F)ccc2[n+]1=O,3.17 µM,3.02 µM,2.27 µM,2.86 µM,3.27 µM,4.4 µM,3.46 µM,5.46 µM,1.58 µM,0.956 µM,1.74 µM,1.6 µM,0.91 µM,0.983 µM,1.41 µM,1.83 µM,1.89 µM,1.87 µM,0.55 µM,0.491 µM
CC(C)c1cccc(O)c(=O)c1,–,39 µg/mL,42.4 µg/mL,–,–,> 75 µg/mL and > 100 µM,–,–,–,–,4.51 µg/mL,2.14 µg/mL,3.57 µg/mL,1.34 µg/mL,1.21 µg/mL,4.26 µg/mL,1.2 µg/mL,2 µg/mL,1.25 µg/mL,2.97 µg/mL
